US11540518B2, “Fungicidal oxadiazoles” (FMC Corporation, priority 2017, dated 2023)

Assays:
Format in all cases: in vivo
[1] = tested on: Phakopsora pachyrhizi; experiment: Test A: Asian soybean rust control on soybean seedlings; conditions: sprayed to run-off on soybean seedlings, inoculated the following day, 100 = 100% disease control, 0 = no control
From the text: General protocol for preparing test suspensions for Tests A-C: the test compounds were first dissolved in acetone in an amount equal to 3% of the final volume and then suspended at the desired concentration (in ppm) in acetone and purified water (50/50 mix by volume) containing 250 ppm of the surfactant PEG400 (polyhydric alcohol esters). The resulting test suspensions were then used in Tests A-C.
The test solution was sprayed to the point of run-off on soybean seedlings. The following day the seedlings were inoculated with a spore suspension of Phakopsora pachyrhizi (the causal agent of Asian soybean rust) and incubated in a saturated atmosphere at 22° C. for 24 h, and then moved to a growth chamber at 22° C. for 8 days, after which time visual disease ratings were made.
Results for Tests A-C are given in Table A. In the Table, a rating of 100 indicates 100% disease control and a rating of 0 indicates no disease control (relative to the controls). A dash (-) indicates the compound was not tested.

[2] = tested on: Zymoseptoria tritici; experiment: Test B: wheat leaf blotch control on wheat seedlings; conditions: sprayed to run-off on wheat seedlings, inoculated the following day, 100 = 100% disease control, 0 = no control
From the text: (§1) General protocol for preparing test suspensions for Tests A-C: the test compounds were first dissolved in acetone in an amount equal to 3% of the final volume and then suspended at the desired concentration (in ppm) in acetone and purified water (50/50 mix by volume) containing 250 ppm of the surfactant PEG400 (polyhydric alcohol esters). The resulting test suspensions were then used in Tests A-C. The test solution was sprayed to the point of run-off on wheat seedlings. The following day the seedlings were inoculated with a spore suspension of Zymoseptoria tritici (the causal agent of wheat leaf blotch) and incubated in a saturated atmosphere at 24° C. for 48 h, and then moved to a growth chamber at 20° C. for 17 days, after which time disease ratings were made. Results for Tests A-C are given in Table A. In the Table, a rating of 100 indicates 100% disease control and a rating of 0 indicates no disease control (relative to the controls). A dash (-) indicates the compound was not tested.

[3] = tested on: Puccinia recondita f. sp. tritici; experiment: Test C: wheat leaf rust control on wheat seedlings; conditions: sprayed to run-off on wheat seedlings, inoculated the following day, 100 = 100% disease control, 0 = no control
From the text: as §1, with “Puccinia recondita f. sp.” for “Zymoseptoria”, “rust)” for “blotch)”, “20°” for “24°”, “24” for “48”, “6” for “17”

[4] = 250 ppm (incl. values marked * = tested at 250 ppm)

SMILES: O=C(NCCCl)OCc1ccc(-c2noc(C(F)(F)F)n2)cc1 [Compound 7]
- Test A disease control rating ([1]; 260 ppm): 100%
- Test B disease control rating ([2]; 260 ppm): 98%
- Test C disease control rating ([3]; 260 ppm): 100%

SMILES: CCNC(=O)OC(COC)Cc1ccc(-c2noc(C(F)(F)F)n2)cc1 (stereo not drawn) [Compound 75]
- Test A disease control rating ([1]; 10 ppm): 100%
- Test B disease control rating [2, 4]: 97* %
- Test C disease control rating ([3]; 10 ppm): 91%

SMILES: CCCCNC(=O)OCc1ccc(-c2noc(C(F)(F)F)n2)cc1 [Compound 15]
- Test A disease control rating ([1]; 265 ppm): 100%
- Test B disease control rating ([2]; 265 ppm): 92%
- Test C disease control rating ([3]; 265 ppm): 100%

SMILES: CC(OC(=O)NC1CC1)c1ccc(-c2noc(C(F)(F)F)n2)cc1 (stereo not drawn) [Compound 77]
- Test A disease control rating ([1]; 10 ppm): 100%
- Test B disease control rating ([2]; 10 ppm): 0%
- Test C disease control rating ([3]; 10 ppm): 92%

SMILES: C=CCNC(=O)OC(c1ccccc1)c1ccc(-c2noc(C(F)(F)F)n2)cc1 (stereo not drawn) [Compound 138]
- Test A disease control rating ([1]; 250 ppm): 100%
- Test B disease control rating [2, 4]: 99%
- Test C disease control rating ([3]; 250 ppm): 100%

SMILES: COC(=O)NN=Cc1ccc(-c2noc(C(F)(F)F)n2)cc1 [Compound 105, methyl 2-[[4-[5-(trifluoromethyl)-1,2,4-oxadiazol-3-yl]phenyl]methylene]-hydrazinecarboxylate]
- pest or weed control at 250 ppm ([1]; Phakopsora pachyrhizi, 216 h, 250 ppm, read-out: Test A disease control rating): 100%
- Test B disease control rating [2, 4]: 99%
- pest or weed control at 250 ppm ([3]; Puccinia recondita, 168 h, 250 ppm, read-out: Test C disease control rating): 100%

SMILES: O=C(Nc1ccccc1)OCc1ccc(-c2noc(C(F)(F)F)n2)cc1 [Compound 1]
- Test A disease control rating ([1]; 270 ppm): 100%
- Test B disease control rating ([2]; 270 ppm): 79%
- Test C disease control rating ([3]; 270 ppm): 100%

SMILES: CNC(=O)OC(c1ccccc1)c1ccc(-c2noc(C(F)(F)F)n2)cc1 (stereo not drawn) [Compound 137]
- Test A disease control rating ([1]; 250 ppm): 100%
- Test B disease control rating [2, 4]: 70%
- Test C disease control rating ([3]; 250 ppm): 100%

SMILES: C=CCNC(=O)OCc1cccc(-c2noc(C(F)(F)F)n2)c1 [Compound 97]
- Test A disease control rating ([1]; 250 ppm): 100%
- Test B disease control rating [2, 4]: 52%
- Test C disease control rating ([3]; 250 ppm): 100%

SMILES: CCCNC(=O)OC(c1ccccc1)c1ccc(-c2noc(C(F)(F)F)n2)cc1 (stereo not drawn) [Compound 139]
- Test A disease control rating ([1]; 250 ppm): 100%
- Test B disease control rating [2, 4]: 56%
- Test C disease control rating ([3]; 250 ppm): 100%

SMILES: CNC(=O)OC(c1ccc(F)cc1)c1ccc(-c2noc(C(F)(F)F)n2)cc1 (stereo not drawn) [Compound 113]
- Test A disease control rating ([1]; 250 ppm): 100%
- Test B disease control rating [2, 4]: 82%
- Test C disease control rating ([3]; 250 ppm): 100%

SMILES: Cc1ccc(C(OC(N)=O)c2ccc(-c3noc(C(F)(F)F)n3)cc2)cc1 (stereo not drawn) [Compound 143]
- Test A disease control rating ([1]; 250 ppm): 100%
- Test B disease control rating [2, 4]: 69%
- Test C disease control rating ([3]; 250 ppm): 100%

SMILES: CCNC(=O)OCCc1ccc(-c2noc(C(F)(F)F)n2)cc1 [Compound 43, 2-[4-[5-(trifluoromethyl)-1,2,4-oxadiazol-3-yl]phenyl]ethyl N-ethylcarbamate]
- pest or weed control at 10 ppm ([1]; Phakopsora pachyrhizi, 216 h, 10 ppm, read-out: Test A disease control rating): 100%
- Test B disease control rating [2, 4]: 0* %
- pest or weed control at 10 ppm ([3]; Puccinia recondita, 168 h, 10 ppm, read-out: Test C disease control rating): 97%

SMILES: CCNC(=O)OC(c1ccc(-c2noc(C(F)(F)F)n2)cc1)c1cccc(F)c1 (stereo not drawn) [Compound 133]
- Test A disease control rating ([1]; 250 ppm): 100%
- Test B disease control rating [2, 4]: 99%
- Test C disease control rating ([3]; 250 ppm): 100%

SMILES: CCNC(=O)OC(c1ccc(C)cc1)c1ccc(-c2noc(C(F)(F)F)n2)cc1 (stereo not drawn) [Compound 145]
- Test A disease control rating ([1]; 250 ppm): 100%
- Test B disease control rating [2, 4]: 28%
- Test C disease control rating ([3]; 250 ppm): 98%

SMILES: CNC(=O)OCc1cccc(-c2noc(C(F)(F)F)n2)c1 [Compound 94]
- Test A disease control rating ([1]; 250 ppm): 69%
- Test B disease control rating [2, 4]: 1%
- Test C disease control rating ([3]; 250 ppm): 100%

SMILES: CCOC(=O)NN=Cc1ccc(-c2noc(C(F)(F)F)n2)s1 [Compound 124]
- Test A disease control rating ([1]; 50 ppm): 100%
- Test B disease control rating [2, 4]: 73* %
- Test C disease control rating ([3]; 50 ppm): 100%

SMILES: CCNC(=O)OCC(OC)c1ccc(-c2noc(C(F)(F)F)n2)cc1 (racemic) [Compound 5]
- Test A disease control rating ([1]; 260 ppm): 100%
- Test B disease control rating ([2]; 260 ppm): 81%
- Test C disease control rating ([3]; 260 ppm): 100%

SMILES: O=C(OC(c1ccc(-c2noc(C(F)(F)F)n2)cc1)c1cccc(F)c1)n1ccnc1 (stereo not drawn) [Compound 125]
- Test A disease control rating ([1]; 250 ppm): 100%
- Test B disease control rating [2, 4]: 97%
- Test C disease control rating ([3]; 250 ppm): 100%

SMILES: COCCNC(=O)OCc1ccc(-c2noc(C(F)(F)F)n2)cc1 [Compound 11]
- Test A disease control rating ([1]; 250 ppm): 100%
- Test B disease control rating [2, 4]: 96%
- Test C disease control rating ([3]; 250 ppm): 100%

SMILES: CC(C)(C)NC(=O)OCc1ccc(-c2noc(C(F)(F)F)n2)cc1 [Compound 16]
- Test A disease control rating ([1]; 255 ppm): 100%
- Test B disease control rating ([2]; 255 ppm): 19%
- Test C disease control rating ([3]; 255 ppm): 100%

SMILES: CNC(=O)OC(c1ccc(-c2noc(C(F)(F)F)n2)cc1)c1cccc(Cl)c1 (stereo not drawn) [Compound 102]
- Test A disease control rating ([1]; 250 ppm): 100%
- Test B disease control rating [2, 4]: 96%
- Test C disease control rating ([3]; 250 ppm): 90%

SMILES: O=C(OC(c1ccc(-c2noc(C(F)(F)F)n2)cc1)c1cccc(Cl)c1)n1ccnc1 (stereo not drawn) [Compound 126]
- Test A disease control rating ([1]; 10 ppm): 99%
- Test B disease control rating [2, 4]: 88* %
- Test C disease control rating ([3]; 10 ppm): 0%

SMILES: NC(=O)OCc1ccc(-c2noc(C(F)(F)F)n2)cc1 [Compound 17, [4-[5-(trifluoromethyl)-1,2,4-oxadiazol-3-yl]phenyl]methyl carbamate]
- pest or weed control at 260 ppm ([1]; Phakopsora pachyrhizi, 216 h, 260 ppm, read-out: Test A disease control rating): 100%
- Test B disease control rating ([2]; 260 ppm): 92%
- pest or weed control at 260 ppm ([3]; Puccinia recondita, 168 h, 260 ppm, read-out: Test C disease control rating): 100%
